Where only a bound is given, the exact number is not on record here.

The target of the experiment is T1, GLP-1R (Homo sapiens, UniProt P43220).
T1 construct: host or cells: GLP-1R CRE-bla CHO-K1 cells
T1 sequence (P43220 24-463): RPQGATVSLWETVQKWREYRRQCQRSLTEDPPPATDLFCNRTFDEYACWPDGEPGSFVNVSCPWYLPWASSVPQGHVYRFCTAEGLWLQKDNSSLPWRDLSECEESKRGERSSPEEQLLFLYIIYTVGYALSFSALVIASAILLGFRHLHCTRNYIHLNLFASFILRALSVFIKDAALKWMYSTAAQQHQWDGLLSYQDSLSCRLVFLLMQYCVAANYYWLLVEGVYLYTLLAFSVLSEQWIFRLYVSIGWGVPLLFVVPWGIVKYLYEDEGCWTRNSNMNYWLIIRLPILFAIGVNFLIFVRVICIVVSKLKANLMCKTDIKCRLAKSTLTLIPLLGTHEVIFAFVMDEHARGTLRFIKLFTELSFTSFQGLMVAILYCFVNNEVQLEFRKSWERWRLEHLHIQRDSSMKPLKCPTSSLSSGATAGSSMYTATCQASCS
T1 sequence (P01275 100-127 partner limits assumed): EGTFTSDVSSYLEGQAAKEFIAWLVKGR
The experiment can be described thus: EC20 GLP-1(9-36) PAM cAMP assay: dose response of compound in the presence of fixed concentration of GLP-1(9-36). The class given is cell-based. As to conditions: dose response of compound in presence of fixed concentration of GLP-1(9-36), GLP-1R CRE-bla CHO-K1 cells, read-out: EC20 GLP-1(9-36) PAM EC50. A digest of the protocol: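 Positive allosteric modulation read as cAMP accumulation: compound titrations (12 points) combined with an EC20 level of GLP-1(9-36) on CHO-K1 GLP-1R CRE-bla cells, IBMX present, 30 min, 37 °C, pH 7.4 buffer. Luminescence converted to cAMP via standards; non-linear fit gave EC50 and Emax.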
Regarding `CC(C)(C)c1ccc(C(=O)N[C@@H](Cc2ccc(-c3ncc(-c4ccc(OCCC5CCCCC5)cc4)cn3)cc2)C(=O)NCCC(=O)O)cc1` [Compound 474, (S)-3-(2-(4-(tert-butyl)benzamido)-3-(4-(5-(4-(2-cyclohexylethoxy)phenyl)-pyrimidin-2-yl)phenyl)propanamido)propanoic acid], the EC50 was in the range of 800 to 2500 nM.
To `CCCCCCCOc1ccc(-c2cnc(-c3ccc(C[C@H](NC(=O)c4ccc(C(C)(C)C)cc4)C(=O)N[C@@H](CCN)C(=O)O)cc3)nc2)cc1` [Compound 475] belongs 800 to 2500 nM; to `CCCCCCCOc1ccc(-c2cnc(-c3ccc(C[C@H](NC(=O)c4ccc(C(C)(C)C)cc4)C(=O)N[C@H](CCN)C(=O)O)cc3)nc2)cc1` [Compound 476], 2500 to 5000 nM; to `CCCCCCCOc1ccc(-c2cnc(-c3ccc(C[C@H](NC(=O)c4ccc(C(C)(C)C)cc4)C(=O)N[C@@H](CC(=O)NC)C(=O)O)cc3)nc2)cc1` [Compound 477, N^2—((S)-2-(4-(tert-butyl)benzamido)-3-(4-(5-(4-(heptyloxy)phenyl)pyrimidin-2-yl)phenyl)propanoyl)-N^4-methyl-L-asparagine], below 800 nM.
On to `CCCCCCCOc1ccc(-c2cnc(-c3ccc(C[C@H](NC(=O)c4ccc(C(C)(C)C)cc4)C(=O)N[C@@H](CC(=O)N(C)C)C(=O)O)cc3)nc2)cc1` [Compound 478], for which the EC50 is below 800 nM.
For `CCCCCCCOc1ccc(-c2cnc(-c3ccc(C[C@H](NC(=O)c4ccc(C(C)(C)C)cc4)C(=O)N[C@@H](CC(=O)NC4CC4)C(=O)O)cc3)nc2)cc1` [Compound 479] the value was below 800 nM; for `CCCCCCCOc1ccc(-c2cnc(-c3ccc(C[C@H](NC(=O)c4ccc(C(C)(C)C)cc4)C(=O)N[C@@H](CC(=O)NCC(=O)O)C(=O)O)cc3)nc2)cc1` [Compound 480], 800 to 2500 nM.
Turning to `CCCCCCCOc1ccc(-c2cnc(-c3ccc(C[C@H](NC(=O)c4ccc(C(C)(C)C)cc4)C(=O)N[C@@H](CC(=O)N[C@@H](CO)C(=O)O)C(=O)O)cc3)nc2)cc1` [Compound 481], the EC50 was in the range of 800 to 2500 nM.
For `CCCCCCCOc1ccc(-c2cnc(-c3ccc(C[C@H](NC(=O)c4ccc(C(C)(C)C)cc4)C(=O)N[C@@H](CC(=O)NCC(N)=O)C(=O)O)cc3)nc2)cc1` [Compound 482] the value was below 800 nM; for `CCCCCCCOc1ccc(-c2cnc(-c3ccc(C[C@H](NC(=O)c4ccc(C(C)(C)C)cc4)C(=O)N[C@@H](CC(=O)N[C@@H](C)C(=O)O)C(=O)O)cc3)nc2)cc1` [Compound 483], 800 to 2500 nM; for `CCCCCCCOc1ccc(-c2cnc(-c3ccc(C[C@H](NC(=O)c4ccc(C(C)(C)C)cc4)C(=O)N[C@@H](CC(=O)NCCN)C(=O)O)cc3)nc2)cc1` [Compound 484], 800 to 2500 nM.
For `CCCCCCCOc1ccc(-c2cnc(-c3ccc(C[C@H](NC(=O)c4ccc(C(C)(C)C)cc4)C(=O)N[C@@H](CC(=O)NCCN(C)C)C(=O)O)cc3)nc2)cc1` [Compound 485] the value was 5000 to 10000 nM.
For `CCCCCCCOc1ccc(-c2cnc(-c3ccc(C[C@H](NC(=O)c4ccc(C(C)(C)C)s4)C(=O)NCC(=O)NCC(=O)O)cc3)nc2)cc1` [Compound 486] the value was below 800 nM.
Consider `CCCCCCCOc1ccc(-c2cnc(-c3ccc(C[C@H](NC(=O)c4ccc(C(C)(C)C)s4)C(=O)NCC(=O)NCCC(=O)O)cc3)nc2)cc1` [Compound 487], for which the EC50 was below 800 nM.
To `CCCCCCCOc1ccc(-c2cnc(-c3ccc(C[C@H](NC(=O)c4ccc(C(C)(C)C)cc4)C(=O)NC(C(=O)O)c4nc(C)oc4C)cc3)nc2)cc1` (stereo partly shown) [Compound 488] belongs 800 to 2500 nM; to `CCCCCOc1ccc(-c2cnc(-c3ccc(C[C@H](NC(=O)c4ccc(C(C)(C)C)cc4)C(=O)NCCC(=O)O)cc3)nc2)cc1` [Compound 489], 800 to 2500 nM; to `CCCCCCOc1ccc(-c2cnc(-c3ccc(C[C@H](NC(=O)c4ccc(C(C)(C)C)cc4)C(=O)NCCC(=O)O)cc3)nc2)cc1` [Compound 490], 800 to 2500 nM.
For `CCCCCCCOc1ccc(-c2cnc(-c3ccc(C[C@H](NC(=O)c4ccc(C(C)(C)C)cc4)C(=O)N4C[C@H](O)C[C@H]4C(=O)O)cc3)nc2)cc1` [Compound 491] the value was below 800 nM; for `CCCCCCCOc1ccc(-c2cnc(-c3ccc(C[C@H](NC(=O)c4ccc(C(C)(C)C)cc4)C(=O)N[C@@H](CCCCN)C(=O)O)cc3)nc2)cc1` [Compound 492], 5000 to 10000 nM; for `CCCCCCCOc1ccc(-c2cnc(-c3ccc(C[C@H](NC(=O)c4ccc(C(C)(C)C)s4)C(=O)N4CCC[C@H]4C(=O)NCC(=O)O)cc3)nc2)cc1` [Compound 493], below 800 nM.
To `CCCCCCCOc1ccc(-c2cnc(-c3ccc(C[C@H](NC(=O)c4ccc(C(C)(C)C)s4)C(=O)N4CCC[C@H]4C(=O)NCCC(=O)O)cc3)nc2)cc1` [Compound 494] belongs below 800 nM; to `CCCCCCCOc1ccc(-c2cnc(-c3ccc(C[C@H](NC(=O)c4ccc(C(C)(C)C)s4)C(=O)N4CCC[C@H]4C(=O)NS(C)(=O)=O)cc3)nc2)cc1` [Compound 495], below 800 nM; to `CCCCCCCOc1ccc(-c2cnc(-c3ccc(C[C@H](NC(=O)c4ccc(C(C)(C)C)s4)C(=O)N4CCC[C@H]4C(=O)NS(=O)(=O)CC(=O)OC)cc3)nc2)cc1` [Compound 496], below 800 nM.
With `CCCCCCCOc1ccc(-c2cnc(-c3ccc(C[C@H](NC(=O)c4ccc(C(C)(C)C)s4)C(=O)N4CCC[C@H]4C(=O)N4CCCC4C(=O)O)cc3)nc2)cc1` (stereo partly shown) [Compound 497], the EC50 was below 800 nM.
To `CCCCCCCOc1ccc(-c2cnc(-c3ccc(C[C@H](NC(=O)c4ccc(C(C)(C)C)cc4)C(=O)N[C@H](CC)C(=O)O)cc3)nc2)cc1` [Compound 498] belongs 800 to 2500 nM; to `CCCCCCCOc1ccc(-c2cnc(-c3ccc(C[C@H](NC(=O)c4ccc(C(C)(C)C)cc4)C(=O)N[C@@H](CC)C(=O)O)cc3)nc2)cc1` [Compound 499], below 800 nM; to `CCCCCCCOc1ccc(-c2cnc(-c3ccc(C[C@H](NC(=O)c4ccc(C(C)(C)C)s4)C(=O)N4CCC[C@H]4C(=O)N4CC[C@@H](C(=O)O)C4)cc3)nc2)cc1` [Compound 500], 800 to 2500 nM.
As for `CCCCCCCOc1ccc(-c2cnc(-c3ccc(C[C@H](NC(=O)c4ccc(C(C)(C)C)s4)C(=O)NC(C(=O)O)c4cccc(S(C)(=O)=O)c4)cc3)nc2)cc1` (stereo partly shown) [Compound 501], the EC50 is below 800 nM.
To `CCCCCCCOc1ccc(-c2cnc(-c3ccc(C[C@H](NC(=O)c4ccc(C(C)(C)C)cc4)C(=O)N[C@@H](CC(=O)OCc4ccccc4)C(=O)O)cc3)nc2)cc1` [Compound 502, (S)-4-(benzyloxy)-2-((S)-2-(4-(tert-butyl)benzamido)-3-(4-(5-(4-(heptyloxy)phenyl)pyrimidin-2-yl)phenyl)propanamido)-4-oxobutanoic acid] belongs below 800 nM; to `CCCCCCCOc1ccc(-c2cnc(-c3ccc(C[C@H](NC(=O)c4ccc(C(C)(C)C)cc4)C(=O)N[C@@H](CC(=O)O)C(=O)N(C)C)cc3)nc2)cc1` [Compound 503], 800 to 2500 nM; to `CCCCCCCOc1ccc(-c2cnc(-c3ccc(C[C@H](NC(=O)c4ccc(C(C)(C)C)cc4)C(=O)N[C@@H](CC(=O)O)C(=O)N4CCCCC4)cc3)nc2)cc1` [Compound 504], 2500 to 5000 nM.
For `CCCCCCCOc1ccc(-c2cnc(-c3ccc(C[C@H](NC(=O)c4ccc(C(C)(C)C)cc4)C(=O)N[C@@H](CC(=O)O)C(=O)N(C)CCN(C)C)cc3)nc2)cc1` [Compound 505] the value was 800 to 2500 nM; for `CCCCCCCOc1ccc(-c2cnc(-c3ccc(C[C@H](NC(=O)c4ccc(C(C)(C)C)cc4)C(=O)N[C@@H](CC(=O)O)C(=O)NCCOC)cc3)nc2)cc1` [Compound 506], 800 to 2500 nM.
For `CCCCCCCOc1ccc(-c2cnc(-c3ccc(C[C@H](NC(=O)c4ccc(C(C)(C)C)cc4)C(=O)N[C@@H](CC(=O)O)C(=O)N4CCOCC4)cc3)nc2)cc1` [Compound 507] the value was 800 to 2500 nM.
In the case of `CCCCCCCOc1ccc(-c2cnc(-c3ccc(C[C@H](NC(=O)c4ccc(C(C)(C)C)cc4)C(=O)N[C@@H](CC(=O)NCCO)C(=O)O)cc3)nc2)cc1` [Compound 508], the half-maximal effective concentration (EC50) was below 800 nM.
To `CCCCCCCOc1ccc(-c2cnc(-c3ccc(C[C@H](NC(=O)c4ccc(C(C)(C)C)cc4)C(=O)N[C@@H](CC(=O)N(C)CCN)C(=O)O)cc3)nc2)cc1` [Compound 509] belongs 800 to 2500 nM; to `CCCCCCCOc1ccc(-c2cnc(-c3ccc(C[C@H](NC(=O)c4ccc(C(C)(C)C)cc4)C(=O)N[C@@H](CC(=O)Nc4nnn[nH]4)C(=O)O)cc3)nc2)cc1` [Compound 510], 2500 to 5000 nM.
For `CCCCCCCOc1ccc(-c2cnc(-c3ccc(C[C@H](NC(=O)c4ccc(C(C)(C)C)cc4)C(=O)N[C@@H](CC(=O)NS(C)(=O)=O)C(=O)O)cc3)nc2)cc1` [Compound 511] the value was 800 to 2500 nM; for `CCCCCCCOc1ccc(-c2cnc(-c3ccc(C[C@H](NC(=O)c4ccc(C(C)(C)C)s4)C(=O)N[C@@H](CC(=O)NC)C(=O)O)cc3)nc2)cc1` [Compound 512], below 800 nM; for `CCCCCCCOc1ccc(-c2cnc(-c3ccc(C[C@H](NC(=O)c4ccc(C(C)(C)C)s4)C(=O)N[C@@H](CC(=O)N(C)C)C(=O)O)cc3)nc2)cc1` [Compound 513], below 800 nM.
For the molecule `CCCCCCCOc1ccc(-c2cnc(-c3ccc(C[C@H](NC(=O)c4ccc(C(C)(C)C)s4)C(=O)N[C@@H](CC(=O)NCC(=O)O)C(=O)O)cc3)nc2)cc1` [Compound 515], the EC50 is below 800 nM.
As to `CCCCCCCOc1ccc(-c2cnc(-c3ccc(C[C@H](NC(=O)c4ccc(C(C)(C)C)s4)C(=O)N[C@@H](CC(=O)N[C@@H](C)C(=O)O)C(=O)O)cc3)nc2)cc1` [Compound 516], the concentration giving a half-maximal response (EC50) is below 800 nM.
To `CCCCCCCOc1ccc(-c2cnc(-c3ccc(C[C@H](NC(=O)c4ccc(C(C)(C)C)s4)C(=O)N[C@@H](CC(=O)N[C@@H](CO)C(=O)O)C(=O)O)cc3)nc2)cc1` [Compound 517] belongs below 800 nM.

(Values after US10034886B2, “GLP-1 receptor modulators” (Celgene International II SÀRL, priority 2014, dated 2018).)
